Experiments:
8 cancer cell lines = assay: Classification of drugs by Apotracker Red (apoptosis) and CellTrace Violet (proliferation) staining; assay type: cell-based; conditions: 8 cancer cell lines, 24 h treatment, flow cytometry
Description: To corroborate the versatility of Apotracker Red, we built a screening platform including a total of 8 cancer cell lines of variable origin and pathogenesis: breast (MCF7, MDA‐MB231 and MMTV‐PyMT (mouse mammary tumour virus‐polyoma middle tumour‐antigen)[23]), lung (A549), prostate (PC3 and LnCap), blood cells (Jurkat) and colon (HT29). All cell lines were cultured under standard conditions and seeded with the fluorescent proliferation marker CellTrace^TM Violet (CV) in 96‐well plates (10–20×10^3 cells/well) for high‐throughput flow cytometry. After drug treatment (i.e., drug addition plus 24 h incubation), Apotracker Red was incubated for 10 min and fluorescence readings were directly acquired without any additional processing steps (Figure 3 a). […] Using this platform, we tested a collection of FDA‐approved drugs in all cancer cell lines and compared their ability to induce apoptosis using Apotracker Red as the reporter. Specifically, we included DNA alkylation agents (e.g., cyclophosphamide, cisplatin, 5‐fluorouracil, gemcitabine, temozolomide), proteasomal and mitotic inhibitors (e.g., bortezomib, docetaxel, paclitaxel) and antagonists of specific proteins (e.g., dexamethasone, tamoxifen; Figure 3 b).
First, all drugs were tested in the 8 different cell lines to determine the percentages of Apotracker Red‐stained apoptotic cells compared to no treatment (Figure 3 c; Figure S8). […] All 5 drugs were tested at multiple concentrations (from 1 to 100 μM) and with incubation times up to 48 h to examine whether drugs could block cell proliferation at late stages (Figures S9–S13).
Figure S8. Heatmap of relative inhibition of cell proliferation (as indicated by staining of CellTraceTM Violet) after treatment of cancer cell lines with different drugs. Data presented as an average of 3 independent experiments. Cells were stained on day 0 with CellTraceTM Violet (1 µM) and mean fluorescence intensities were determined on the 5L LSR after 24 h of treatment with the different drugs. […]
Cell culture. MCF-7, A549, LnCap, MDA-MB-231, Jurkat T cells and PC3 cells were obtained from American Type Culture Collection (ATCC). HT29 cells were purchased from Merck (S i g m a Aldrich, UK). Mouse Mammary Tumour Virus –Polyoma Middle T antigen (MMTV -PyMT) cells were provided by the lab of Mikala Egeblad (CSHL, US). MMTV-PyMT, MCF-7, LnCap, MDA-MB-231 and Jurkat T cells were cultured in Roswell Park Memorial Institute (RPMI) 1640 Medium supplemented with 10% fetal bovine serum (FBS) , 100 U mL-1 penicillin and 0.1 mg mL-1 streptomycin. A549 and PC3 cells were cultured in Dublecco’s modified Eagle’s medium (DMEM) supplemented with 10% fetal bovine serum (FBS), 100 U mL-1 penicillin and 0.1 mg […]
Flow cytometry drug screen.

[1] = tested on: MMTV-PyMT mammary gland tumours; assay: Intravital imaging and ex vivo quantification of cisplatin-induced apoptosis; assay type: in vivo, mouse
Excerpt: Optical intravital imaging is increasingly used for the preclinical evaluation of anticancer drugs in vivo. Although imaging modalities like computed tomography, positron emission tomography and magnetic resonance imaging can help to visualise whole intact organs in a non‐invasive manner,[26] they lack the spatiotemporal resolution needed to study dynamic interactions between individual tumour and stromal cells. This feature is critical to understand the mechanism of action of anticancer drugs and how they can affect interactions between cancer cells and immune cells in the tumour microenvironment.[27] Intravital imaging heavily relies on the acquisition of fluorescence signals using multiphoton microscopy, which provides cellular resolution with deep tissue penetration (≈500 μm) and minimal photodamage.[28] […] First, we analysed the chemical stability of Apotracker Red for in vivo studies by incubating the probe in mouse serum. […] When primary tumours measured around 0.5–1 cm in diameter, we administered cisplatin intraperitoneally (10 mg kg^−1). […]
were centrifuged (300 g, 5 min, r.t.), washed once with PBS before addition of 0.05% Trypsin, 0.02% ethylenediaminetetraacetic acid (EDTA) in Hank’s balanced salt solution (HBSS) and incubation at 37°C for 5 min. […] Histograms and mean fluorescence intensities of apoptotic cells were measured on a 5L LSR flow cytometer under the following […]

N.N.[Cl][Pt][Cl] [cisplatin]
drug group by Apotracker Red (apoptosis) and CV (proliferation) staining (8 cancer cell lines): induced apoptosis and decreased cell proliferation
Apotracker Red fluorescence in tumours of cisplatin-treated mice (cancer cell death) ([1]; MMTV-PyMT;ACTB-ECFP mice, cisplatin 10 mg kg^-1 intraperitoneally, Apotracker Red 650 ng i.v. after 72 h, two-photon intravital imaging): strong red fluorescent signals indicating cancer cell death induced by the drug
relative percentages of apoptotic cells in tumours, ex vivo quantification ([1]; cisplatin 10 μg g^-1 i.p., day 3, at least 5 tumour areas per mouse, mean±SEM, one-way ANOVA p<0.05): significant differences
